In PubChem BioAssay (NCI):
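Step 1: Grow cells in 96-well plates. Step 2: Expose to compound for 48 hours at 5 concentrations. Step 3: Interpolate endpoints linearly; if unreached, use highest concentration. TGI: concentration producing complete growth inhibition.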

Experiments:
Assay in all cases: NCI tumour cell line growth inhibition, 48 h
HCC-2998 colon = test system: HCC-2998 colon
786-0 renal = test system: 786-0 renal
OVCAR-3 ovarian = test system: OVCAR-3 ovarian
SNB-19 CNS = test system: SNB-19 CNS
EKVX NSCLC = test system: EKVX NSCLC
HOP-18 NSCLC = test system: HOP-18 NSCLC
SF-295 CNS = test system: SF-295 CNS
LXFL 529 NSCLC = test system: LXFL 529 NSCLC
SK-OV-3 ovarian = test system: SK-OV-3 ovarian
KM12 colon = test system: KM12 colon
COLO 205 colon = test system: COLO 205 colon
NCI-H226 lung = test system: NCI-H226 lung
SNB-75 CNS = test system: SNB-75 CNS
SK-MEL-28 melanoma = test system: SK-MEL-28 melanoma
HT29 colon = test system: HT29 colon
DMS 273 small cell lung = test system: DMS 273 small cell lung
SF-268 CNS = test system: SF-268 CNS
A549 NSCLC = test system: A549 NSCLC
HCT-116 colon = test system: HCT-116 colon
HCT-15 colon = test system: HCT-15 colon
HOP-62 NSCLC = test system: HOP-62 NSCLC
M19-MEL melanoma = test system: M19-MEL melanoma
DLD-1 colon = test system: DLD-1 colon
ACHN renal = test system: ACHN renal
SF-539 CNS = test system: SF-539 CNS
HOP-92 NSCLC = test system: HOP-92 NSCLC
UACC-257 melanoma = test system: UACC-257 melanoma
TK-10 renal = test system: TK-10 renal
CCRF-CEM leukemia = test system: CCRF-CEM leukemia
M14 melanoma = test system: M14 melanoma
NCI-H23 lung = test system: NCI-H23 lung
UO-31 renal = test system: UO-31 renal
UACC-62 melanoma = test system: UACC-62 melanoma
MOLT-4 leukemia = test system: MOLT-4 leukemia
DMS 114 small cell lung = test system: DMS 114 small cell lung
KM20L2 colon = test system: KM20L2 colon
NCI-H522 lung = test system: NCI-H522 lung
HL-60(TB) leukemia = test system: HL-60(TB) leukemia
K-562 leukemia = test system: K-562 leukemia
NCI-H460 lung = test system: NCI-H460 lung
SNB-78 CNS = test system: SNB-78 CNS
SK-MEL-5 melanoma = test system: SK-MEL-5 melanoma
CAKI-1 renal = test system: CAKI-1 renal
U251 CNS = test system: U251 CNS
SR leukemia = test system: SR leukemia
OVCAR-8 ovarian = test system: OVCAR-8 ovarian
SW-620 colon = test system: SW-620 colon
SN12C renal = test system: SN12C renal
IGROV1 ovarian = test system: IGROV1 ovarian
OVCAR-5 ovarian = test system: OVCAR-5 ovarian
OVCAR-4 ovarian = test system: OVCAR-4 ovarian
SK-MEL-2 melanoma = test system: SK-MEL-2 melanoma
RPMI-8226 leukemia = test system: RPMI-8226 leukemia
A498 renal = test system: A498 renal
XF 498 CNS = test system: XF 498 CNS
LOX IMVI melanoma = test system: LOX IMVI melanoma
MALME-3M melanoma = test system: MALME-3M melanoma
MCF7 breast = test system: MCF7 breast
RXF 393 renal = test system: RXF 393 renal
BT-549 breast = test system: BT-549 breast
HS 578T breast = test system: HS 578T breast
MDA-N = test system: MDA-N
PC-3 prostate = test system: PC-3 prostate
T-47D breast = test system: T-47D breast
DU-145 prostate = test system: DU-145 prostate
MDA-MB-435 = test system: MDA-MB-435
MDA-MB-231 breast = test system: MDA-MB-231 breast

## Clc1ccc(CCn2cncn2)c(Cl)c1
HCC-2998 colon
  TGI: > 100 µM
786-0 renal
  TGI: > 100 µM
OVCAR-3 ovarian
  TGI: > 100 µM
SNB-19 CNS
  TGI: > 100 µM
EKVX NSCLC
  TGI: > 100 µM
HOP-18 NSCLC
  TGI: > 100 µM
SF-295 CNS
  TGI: > 100 µM
LXFL 529 NSCLC
  TGI: > 100 µM
SK-OV-3 ovarian
  TGI: > 100 µM
KM12 colon
  TGI: > 100 µM
COLO 205 colon
  TGI: > 100 µM
NCI-H226 lung
  TGI: > 100 µM
SNB-75 CNS
  TGI: > 100 µM
SK-MEL-28 melanoma
  TGI: > 100 µM
HT29 colon
  TGI: > 100 µM
DMS 273 small cell lung
  TGI: > 100 µM
SF-268 CNS
  TGI: > 100 µM
A549 NSCLC
  TGI: > 100 µM
HCT-116 colon
  TGI: > 100 µM
HCT-15 colon
  TGI: > 100 µM
HOP-62 NSCLC
  TGI: > 100 µM
M19-MEL melanoma
  TGI: > 100 µM
DLD-1 colon
  TGI: > 100 µM
ACHN renal
  TGI: > 100 µM
SF-539 CNS
  TGI: > 100 µM
HOP-92 NSCLC
  TGI: > 100 µM
UACC-257 melanoma
  TGI: > 100 µM
TK-10 renal
  TGI: > 100 µM
CCRF-CEM leukemia
  TGI: > 100 µM
M14 melanoma
  TGI: > 100 µM
NCI-H23 lung
  TGI: > 100 µM
UO-31 renal
  TGI: > 100 µM
UACC-62 melanoma
  TGI: > 100 µM
MOLT-4 leukemia
  TGI: > 100 µM
DMS 114 small cell lung
  TGI: > 100 µM
KM20L2 colon
  TGI: > 100 µM
NCI-H522 lung
  TGI: > 100 µM
HL-60(TB) leukemia
  TGI: > 100 µM
K-562 leukemia
  TGI: > 100 µM
NCI-H460 lung
  TGI: > 100 µM
SNB-78 CNS
  TGI: > 100 µM
SK-MEL-5 melanoma
  TGI: > 100 µM
CAKI-1 renal
  TGI: > 100 µM
U251 CNS
  TGI: > 100 µM
SR leukemia
  TGI: > 100 µM
OVCAR-8 ovarian
  TGI: > 100 µM
SW-620 colon
  TGI: > 100 µM
SN12C renal
  TGI: > 100 µM
IGROV1 ovarian
  TGI: > 100 µM
OVCAR-5 ovarian
  TGI: > 100 µM
OVCAR-4 ovarian
  TGI: > 100 µM

## CCC(/C=C/c1ccccc1)=N\N=C(\C=C\c1ccccc1)CC
HCC-2998 colon
  TGI: > 100 µM
786-0 renal
  TGI: > 100 µM
OVCAR-3 ovarian
  TGI: > 100 µM
SNB-19 CNS
  TGI: > 100 µM
EKVX NSCLC
  TGI: > 100 µM
SF-295 CNS
  TGI: > 100 µM
LXFL 529 NSCLC
  TGI: > 100 µM
SK-OV-3 ovarian
  TGI: > 100 µM
KM12 colon
  TGI: > 100 µM
COLO 205 colon
  TGI: > 100 µM
NCI-H226 lung
  TGI: > 100 µM
SNB-75 CNS
  TGI: > 100 µM
SK-MEL-28 melanoma
  TGI: > 100 µM
HT29 colon
  TGI: > 100 µM
DMS 273 small cell lung
  TGI: > 100 µM
SF-268 CNS
  TGI: > 100 µM
A549 NSCLC
  TGI: > 100 µM
HCT-116 colon
  TGI: > 100 µM
HCT-15 colon
  TGI: > 100 µM
SK-MEL-2 melanoma
  TGI: > 100 µM
HOP-62 NSCLC
  TGI: > 100 µM
M19-MEL melanoma
  TGI: > 100 µM
DLD-1 colon
  TGI: > 100 µM
ACHN renal
  TGI: > 100 µM
UACC-257 melanoma
  TGI: > 100 µM
TK-10 renal
  TGI: > 100 µM
CCRF-CEM leukemia
  TGI: > 100 µM
M14 melanoma
  TGI: > 100 µM
NCI-H23 lung
  TGI: > 100 µM
UO-31 renal
  TGI: > 100 µM
UACC-62 melanoma
  TGI: > 100 µM
MOLT-4 leukemia
  TGI: > 100 µM
RPMI-8226 leukemia
  TGI: > 100 µM
A498 renal
  TGI: > 100 µM
KM20L2 colon
  TGI: > 100 µM
NCI-H522 lung
  TGI: > 100 µM
HL-60(TB) leukemia
  TGI: > 100 µM
K-562 leukemia
  TGI: > 100 µM
XF 498 CNS
  TGI: > 100 µM
NCI-H460 lung
  TGI: > 100 µM
SNB-78 CNS
  TGI: > 100 µM
SK-MEL-5 melanoma
  TGI: > 100 µM
U251 CNS
  TGI: > 100 µM
LOX IMVI melanoma
  TGI: > 100 µM
MALME-3M melanoma
  TGI: > 100 µM
SR leukemia
  TGI: > 100 µM
OVCAR-8 ovarian
  TGI: > 100 µM
SW-620 colon
  TGI: > 100 µM
SN12C renal
  TGI: > 100 µM
IGROV1 ovarian
  TGI: > 100 µM
OVCAR-5 ovarian
  TGI: > 100 µM
OVCAR-4 ovarian
  TGI: > 100 µM

## COC1(C)Cc2c(c(C)c(O)c3c2C(=O)C=C(Cl)C3=O)O1 (stereo not drawn)
HCC-2998 colon
  TGI: > 100 µM
786-0 renal
  TGI: > 100 µM
OVCAR-3 ovarian
  TGI: > 72.8 µM
SNB-19 CNS
  TGI: > 100 µM
EKVX NSCLC
  TGI: > 100 µM
MCF7 breast
  TGI: > 100 µM
SF-295 CNS
  TGI: > 100 µM
LXFL 529 NSCLC
  TGI: 28.9 µM
SK-OV-3 ovarian
  TGI: > 100 µM
KM12 colon
  TGI: > 100 µM
COLO 205 colon
  TGI: 38.1 µM
NCI-H226 lung
  TGI: > 100 µM
SNB-75 CNS
  TGI: > 100 µM
SK-MEL-28 melanoma
  TGI: > 66.3 µM
HT29 colon
  TGI: 67 µM
DMS 273 small cell lung
  TGI: > 100 µM
SF-268 CNS
  TGI: > 100 µM
A549 NSCLC
  TGI: > 100 µM
HCT-116 colon
  TGI: > 78 µM
HCT-15 colon
  TGI: > 71.9 µM
RXF 393 renal
  TGI: 31.8 µM
SK-MEL-2 melanoma
  TGI: > 100 µM
HOP-62 NSCLC
  TGI: > 100 µM
M19-MEL melanoma
  TGI: 38.9 µM
DLD-1 colon
  TGI: 37.1 µM
ACHN renal
  TGI: 56.5 µM
SF-539 CNS
  TGI: > 100 µM
HOP-92 NSCLC
  TGI: 36.4 µM
UACC-257 melanoma
  TGI: > 69.5 µM
TK-10 renal
  TGI: 45.6 µM
CCRF-CEM leukemia
  TGI: 26.3 µM
M14 melanoma
  TGI: 56.5 µM
NCI-H23 lung
  TGI: > 100 µM
BT-549 breast
  TGI: > 100 µM
UO-31 renal
  TGI: > 100 µM
UACC-62 melanoma
  TGI: > 87.5 µM
MOLT-4 leukemia
  TGI: 46.2 µM
HS 578T breast
  TGI: > 100 µM
MDA-N
  TGI: > 100 µM
PC-3 prostate
  TGI: > 100 µM
RPMI-8226 leukemia
  TGI: 52.1 µM
DMS 114 small cell lung
  TGI: 76.6 µM
A498 renal
  TGI: > 100 µM
KM20L2 colon
  TGI: > 100 µM
NCI-H522 lung
  TGI: 33 µM
HL-60(TB) leukemia
  TGI: 14.8 µM
K-562 leukemia
  TGI: 36.8 µM
XF 498 CNS
  TGI: > 56.4 µM
NCI-H460 lung
  TGI: > 100 µM
SK-MEL-5 melanoma
  TGI: > 100 µM
T-47D breast
  TGI: 36.7 µM
CAKI-1 renal
  TGI: 42 µM
U251 CNS
  TGI: > 100 µM
LOX IMVI melanoma
  TGI: > 100 µM
DU-145 prostate
  TGI: > 100 µM
MALME-3M melanoma
  TGI: 19.7 µM
SR leukemia
  TGI: 23.5 µM
OVCAR-8 ovarian
  TGI: > 73.6 µM
MDA-MB-435
  TGI: > 100 µM
SW-620 colon
  TGI: 47.1 µM
MDA-MB-231 breast
  TGI: 39.9 µM
SN12C renal
  TGI: > 96.7 µM
IGROV1 ovarian
  TGI: > 100 µM
OVCAR-5 ovarian
  TGI: > 100 µM
OVCAR-4 ovarian
  TGI: > 86.8 µM
